Experimental data: patent publication US20250313563A1, “GLYCOGEN SYNTHASE KINASE 3 INHIBITORS AND USES THEREOF” (The Broad Institute, Inc., priority 2022, published 2025)
Read-outs that look alike come from different tables or passages of the source.

Columns and labels:
[1] = target: GSK3α (GST-full length GSK3α) (Homo sapiens (Human), UniProt P49840); assay: GSK3α TR-FRET kinase assay; type: biochemical
In short: (§1)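 Compound was preincubated 30 min with 1 nM GST-GSK3 enzyme. Reaction ran 100 min at ambient temperature in Tris pH 7.5/MgCl2 with 200 nM biotinylated pS645-glycogen synthase 631-650 peptide and ATP (4 μM GSK3α, 2 μM GSK3b, or 1 mM). The EDTA-stopped reaction was read by TR-FRET (Tb-anti-pSer641/streptavidin-d2), and IC50s were fitted.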

NanoLuc-GSK3α [2] = target: T1, NanoLuc-GSK3α (Homo sapiens (Human), UniProt P49840); assay: NanoBRET live-cell target engagement assay, GSK3α; type: cell-based; conditions: HEK293T cells, Tracer-8 at EC50
T1 sequence (P49840 whole entry): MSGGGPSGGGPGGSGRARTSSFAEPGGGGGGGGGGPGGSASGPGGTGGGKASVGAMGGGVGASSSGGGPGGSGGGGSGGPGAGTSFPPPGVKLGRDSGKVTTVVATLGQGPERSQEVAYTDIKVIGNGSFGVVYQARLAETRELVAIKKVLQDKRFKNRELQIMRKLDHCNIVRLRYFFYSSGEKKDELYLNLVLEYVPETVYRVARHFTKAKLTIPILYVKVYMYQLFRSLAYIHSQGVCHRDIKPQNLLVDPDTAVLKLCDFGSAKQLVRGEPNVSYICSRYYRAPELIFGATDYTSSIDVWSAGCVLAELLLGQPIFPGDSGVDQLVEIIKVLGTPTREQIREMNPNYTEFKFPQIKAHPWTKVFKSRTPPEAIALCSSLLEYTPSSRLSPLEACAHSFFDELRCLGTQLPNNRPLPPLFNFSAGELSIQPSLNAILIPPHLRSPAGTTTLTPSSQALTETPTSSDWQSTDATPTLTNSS
Procedure: (§2) HEK293T cells were transiently transfected with NanoLuc®-GSK3-alpha or NanoLuc®-GSK3-beta constructs using FuGene®-HD (Promega). Next day, the live cell NanoBRETTM target engagement assay was performed. […] Immediately prior to BRET measurements, NanoBRETTM Nano-Glo® Substrate and Extracellular NanoLuc® Inhibitor were added on cells and incubated for 2-3 minutes at room temperature. Donor emission at 450 nm and acceptor emission at 610 nm were measured using a EnVision plate reader. Raw BRET ratio values were calculated by dividing the acceptor emission value by the donor emission value for each sample. Raw BRET units were converted to milliBRET units (mBU) by multiplying each raw BRET value by 1000. mBU values for compound treatments were normalized to DMSO treatment. Ki values are calculated using the formula: Ki=(IC50)/(1+([Tracer]/EC50)). All experiments were performed as biological triplicates with three technical replications.
(§3) To further characterize the GSK3 inhibitor 837646, this compound was tested in a live-cell target engagement assay to investigate binding mode and residence time. […] In this assay, compound binding was quantified as loss of BRET signal from baseline due to competitive displacement of the tracer. […]

[3] = tested on: β-catenin nuclear translocation in SH-SY5Y cells; assay: β-catenin translocation assay; type: cell-based; conditions: SH-SY5Y cells
Procedure: SH-SY5Y cells were seeded into a 96-well CellCarrier Ultra (Perkin Elmer) plate at a density of 1×10^5 cells/ml in complete DMEM. Sixteen hours following plating, media was changed to DMEM with 2% serum, and compound was added with a D300e Digital Dispenser (Tecan) for an incubation time of six hours. After compound incubation, media was removed, and cells were fixed with 4% PFA for 10 minutes at room temperature. Each well was washed three times with PBS-T and then blocked with buffer (1×PBS with 5% Normal Goat Serum and 0.3% Triton X-100) for 30 minutes at room temperature. β-Catenin primary antibody (Cell Signaling #8480) was added at 1:500 dilution in blocking buffer and the cells were allowed to incubate in primary overnight at 4° C. The following day, primary antibody was removed, each well was washed three times with PBS-T, and secondary antibody (1:2000 anti-rabbit AlexaFluor Plus 488 and 1:10,000 Hoechst 33342) was added and allowed to incubate for 60 minutes at room temperature protected from light. After one-hour, secondary antibody was removed and wells were washed four times with PBS-T before imaging on the Opera Phenix. Sixteen fields per well were imaged with a 20× water lens.
Images were quantified in the Columbus Image Data Storage and Analysis software. Cells were identified using the Hoechst nuclear stain to identify individual nuclei. Intensity of the nuclear stain was also used to determine cell viability (Viable cells <30% CV of Hoechst Intensity)

NanoLuc-GSK3α [4] = target: T1, NanoLuc-GSK3α; assay: NanoBRET residence time, GSK3α; type: cell-based; conditions: inhibitor at 10× IC50, BRET every 5 min for 3 hours
NanoLuc-GSK3β = NanoLuc-GSK3β (Homo sapiens (Human), UniProt P49841); assay: NanoBRET live-cell target engagement assay, GSK3β; type: cell-based; conditions: HEK293T cells, Tracer-8 at EC50
Chain of NanoLuc-GSK3β (P49841 whole entry): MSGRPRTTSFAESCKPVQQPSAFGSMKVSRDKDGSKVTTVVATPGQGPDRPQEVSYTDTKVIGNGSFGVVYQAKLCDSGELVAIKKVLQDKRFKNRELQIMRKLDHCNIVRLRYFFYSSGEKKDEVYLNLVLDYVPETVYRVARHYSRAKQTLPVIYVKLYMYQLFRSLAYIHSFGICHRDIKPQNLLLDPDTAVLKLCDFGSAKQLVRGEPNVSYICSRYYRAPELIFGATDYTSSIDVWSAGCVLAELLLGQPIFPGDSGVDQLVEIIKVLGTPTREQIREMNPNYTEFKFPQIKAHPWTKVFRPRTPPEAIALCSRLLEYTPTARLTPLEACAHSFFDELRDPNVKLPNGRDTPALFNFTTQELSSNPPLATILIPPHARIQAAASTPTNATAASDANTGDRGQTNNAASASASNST
Procedure: as §2, §3

human GSK3β = human GSK3β (Homo sapiens (Human), UniProt P49841); assay: pThr231 tau phosphorylation plate-based assay in HEK-huTau cells transfected with GSK3β; type: cell-based; conditions: HEK-huTau cells transfected with human GSK3β; 10-point dose response, 2 hours; read-out: GSK3β IC50 (inhibition of pThr231)
Chain of human GSK3β (P49841 whole entry): as above
Procedure: (§4) HEK293 or SH-SY5Y cells were obtained from American Type Culture Collection (ATCC, Manassas, VA) and cultured in Dulbecco's modified Eagle's medium (DMEM) supplemented with 10% fetal bovine serum (FBS), 10 units/ml penicillin, and 10 μg/ml streptomycin (all reagents were purchased from Gibco, Waltham, MA). Cell cultures were maintained in a humidified 5% (v/v) CO2/air environment at 37° C. When the cells reached 50-80% confluence, they were transfected with a complex consisting of a 3:1 ratio of FuGENE 6 Transfection Reagent (Promega, Madison, WI) and plasmid DNA. Plasmid DNA was balanced out across reactions using an empty plasmid so that the same amount of DNA was added per well. This transfection complex was prepared following the manufacturers protocol and added directly to the cell media for 24 or 48 hours prior to lysis.
(§5) 293T cells stably expressing human 2N4R Tau were transfected with appropriate cDNA plasmids. 24 hours following transfection cells were treated with compound in a 10-point dose-response (from 1000× stocks of compound) and lysates harvested 2 hours later with cell extraction buffer (Life Technologies Cat #BN0001) or RIPA Buffer with Halt protease/phosphatase inhibitors added.
(§6) For pThr231 assay: Lysate was diluted 1:100 in assay buffer and Total Tau and pTau T231 was assessed by plate-based ELISA as per manufacturer instructions (MSD Cat #K15121D-1). Total fluorescence was measured using an Envison plate reader.
(§7) To test the potency and isoform selectivity of GSK3 small molecule inhibitors, HEK-huTau cells were transfected with plasmids containing either human GSK3α or GSK3β. Twenty-four hours after transfection, compounds were added at a 10-point dose response curve (at a range of 30 μM-3 nM) for a total of 2 hours, and cell lysates were probed for total tau and pThr231 using a plate-based assay.

[5] = target: GSK3b (GST-full length GSK3b) (Homo sapiens (Human), UniProt P49841); assay: GSK3b TR-FRET kinase assay; type: biochemical
Chain of GSK3b (GST-full length GSK3b) (P49841 whole entry): as above
In short: as §1

GSK3α = GSK3α (Homo sapiens (Human), UniProt P49840); assay: pThr231 tau phosphorylation plate-based assay in HEK-huTau cells transfected with GSK3α; type: cell-based; conditions: for IC50: HEK-huTau cells transfected with human GSK3α, 10-point dose response, 2 hours, read-out: GSK3α IC50 (inhibition of pThr231); for selectivity for GSK3α over GSK3β: pThr231 HEK-huTau assay, GSK3β IC50 / GSK3α IC50
Chain of GSK3α (P49840 whole entry): as the sequence (P49840 whole entry) above
Procedure: as §4, §5, §6, §7

[6] = 1 nM GSK3α, 4 μM ATP, 30 minute preincubation, Table 16, read-out: GSK3-A TR-FRET BIOCHEMICAL (TR-FRET)
[7] = 1 nM GSK3b, 2 μM ATP, 30 minute preincubation, Table 16, read-out: GSK3-B TR-FRET BIOCHEMICAL (TR-FRET)

Chain of GSK3α (GST-full length GSK3α) (P49840 whole entry): as above

Row | Compound | IC50 [1, 6] [nM] | IC50 ([1]; GSK3-A (TR-FRET 1 mM ATP), GMean, IC50, 1 mM ATP, geometric mean) [nM] | binding mode (competitive displacement of tracer), GSK3α (NanoLuc-GSK3α [2]) | β-catenin nuclear translocation (in words) [3] | residence time at GSK3α (NanoLuc-GSK3α [4]) | binding mode (competitive displacement of tracer), GSK3β (NanoLuc-GSK3β) | IC50 (human GSK3β) [nM] | IC50 [5, 7] [nM] | IC50 ([5]; GSK3-B (TR-FRET 1 mM ATP), GMean, IC50, 1 mM ATP, geometric mean) [nM] | IC50 (GSK3α) [nM] | selectivity for GSK3α over GSK3β (GSK3α) [fold] | IC50 ([1]; read-out: GSK3-A (TR-FRET 1 mM ATP), GMean, IC50, 1 mM ATP, geometric mean) [nM] | IC50 ([5]; read-out: GSK3-B (TR-FRET 1 mM ATP), GMean, IC50, 1 mM ATP, geometric mean) [nM]
1 | CCC1(c2cccc(-c3cn(C)nc3C)c2)C2=C(Nc3n[nH]cc31)C(F)C(C)(C)CC2=O (single isomer, unassigned) [Compound 947651, 4-(3-(1,3-dimethyl-1H-pyrazol-4-yl)phenyl)-4-ethyl-8-fluoro-7,7-dimethyl-2,4,6,7,8,9-hexahydro-5H-pyrazolo[3,4-b]quinolin-5-one] | ≤ 100 | ≤ 100 | ATP-competitive and direct GSK3 binders | nuclear translocation of β-catenin occurred at concentrations in which both GSK3 paralogs are being inhibited | significantly longer residence times | ATP-competitive and direct GSK3 binders | 1400 | ≤ 100 | 100 to 1000 | 61 | 23 | – | –
2 | CCC1(c2cccc(-c3c(F)cncc3OC)c2)C2=C(Nc3n[nH]cc31)C(F)C(C)(C)CC2=O (stereo not shown) [Compound 948546, 4-ethyl-8-fluoro-4-(3-(3-fluoro-5-methoxypyridin-4-yl)phenyl)-7,7-dimethyl-2,4,6,7,8,9-hexahydro-SH-pyrazolo[3,4-b]quinolin-5-one] | ≤ 100 | – | ATP-competitive and direct GSK3 binders | nuclear translocation of β-catenin occurred at concentrations in which both GSK3 paralogs are being inhibited | significantly longer residence times | ATP-competitive and direct GSK3 binders | 1000 | ≤ 100 | – | 96 | 11 | ≤ 100 | 100 to 1000
